{
  "source": "paper PMC11274883",
  "about": "“Anticancer Effect of Pt^[sequence], Pt^II5MESS, Pt^II56MESS and Their Platinum(IV)-Dihydroxy Derivatives against Triple-Negative Breast Cancer and Cisplatin-Resistant Colorectal Cancer” (Cancers, 2024)",
  "type_in_all_cases": "cell-based",
  "key": {"MCF10A": {"test_system": "MCF10A", "test": "WST-1 cytotoxicity, 72 h", "conditions": "mean ± SEM", "method": "Cells were seeded in 96-well flat-bottom culture plates at a concentration of 1000 cells per well. […] After 72 h, the medium was removed and replaced with new medium. The cell viability reagent WST-1 (10 µL, Roche Diagnostics, Indianapolis, IN, USA) was added to each well. After an hour, the absorbance was measured at 450 nm using a versatile microplate reader (Bio-strategy, Campbellfield, VIC, Australia). Three separate experiments were performed, each with n = 3 replicates. GraphPad prism 10 was used to calculate apparent IC50 values using the nonlinear regression model Y = Bottom + (Top-Bottom)/(1 + 10^(X-LogIC50)) where Top and bottom are plateaus in the y-axis (% survival). The R^2 value of the curve fits ranged from 0.8972 to 0.9794."}, "HT29 cells [1]": {"test_system": "HT29 cells", "test": "DCFDA cellular ROS detection assay", "conditions": "complexes at IC50, TBHP 20 µM", "method": "(§1) DCFDA/H2DCFDA-cellular ROS Assay Kit (Abcam, Cambridge, MA, USA) was used to investigate the production of ROS in treated cells, as previously described. MDA−MB−231 or HT29 cells were seeded at a total concentration of 2500 cells/well in 96-well plates and incubated overnight. DMEM was then removed, and cells washed with 1× kit buffer, and stained with 25 µM 2′,7′-dichlorofluorescein diacetate (DCFH-DA) for 45 min. […] After that, the plates were scanned using the Glo-Max®-Multimode microplate reader (Promega Corporation, Alexandra, VIC, Australia) at an excitation/emission of 485/535 nm to detect fluorescence (relative fluorescence units, or RFU) at various time points. A positive control was generated using 20 µM tert-butyl hydroperoxide (TBHP), and the same procedure was applied with DCFDA. Three independent experiments in triplicates were implemented."}, "MDA−MB−231 cells [2]": {"test_system": "MDA−MB−231 cells", "test": "DCFDA cellular ROS detection assay", "conditions": "complexes at IC50, TBHP 20 µM", "method": "as §1"}, "HT29 cells [3]": {"test_system": "HT29 cells", "test": "Western blot protein expression", "conditions": "HT29, IC50, 72 h", "method": "(§2) Protein extraction was then performed on ice. Media were collected in Eppendorf tubes, and centrifuged at 500× g for 5 min at 4 °C. Meanwhile, 200 µL of lysis RIPA buffer, made up of 150 mM NaCl, 50 mM Tris-HCl, pH 8.0, 0.1% Triton X-100, 0.5% sodium deoxycholate, 0.1% SDS and 1 mM sodium orthovanadate, was added to each well, the cells were scrapped into the buffer, and added to the media-derived pellets. The tubes were placed on the shaker for 10 min at 4 °C. Then, cell extracts were centrifuged at 12,000× g for 15 min at 4 °C, and the supernatants (containing the proteins) were collected. The Bio-Rad-DC protein assay (Bio-Rad, Hercules, CA, USA) was used to assess protein content. Laemmli protein sample buffer (4×) with β-mercaptoethanol (9%) was used to prepare a final protein concentration of 20 µg. The samples were then heated at 100 °C for 5 min. A final volume of 30 µL of each sample was added per well and subjected to SDS-PAGE using Bolt 4–12% Bis-Tris gel (Thermo Fisher, Eugene, OR, USA) at 80 V for 30 min and then 120 V for 60 min with PageRuler™ Prestained Protein or SeeBlue Prestained Protein Ladder (Thermo Fisher, Eugene, OR, USA). Proteins were subsequently transferred to a 0.2 µm PVDF membrane (Amersham, Cytiya) using a semi-dry blot transfer. The membrane was then blocked in 5% BSA in TBST, for 1 h and probed overnight at 4 °C with primary antibodies against several cell proliferation, apoptotic, anti-apoptotic, microtubule and autophagic protein markers listed in Table S7 as per the manufacturer’s protocol. The primary antibody was then removed, washed three times for 10 min with TBST and then membranes were treated with either mouse or rabbit HRP-coupled secondary antibodies (1/3000) for 1 h and 30 min. Protein band detection was then performed using the chemiluminescence ECL kit (Thermo Fisher, Eugene, OR, USA). Blot images were obtained using the Odyssey® FC imaging system (LI-COR Biosciences, Lincoln, NE, USA) and band intensities were quantified relatively to glyceraldehyde-3-phosphate dehydrogenase (GAPDH) and then normalised each replicate gel to its corresponding no treatment control using the ImageJ v1.53t software (National Institutes of Health, Bethesda, MD, USA). Each marker results from the same experiment or parallel experiment where the gels were processed in parallel. Three independent experiments per marker were conducted."}, "MDA−MB−231 cells [4]": {"test_system": "MDA−MB−231 cells", "test": "Western blot protein expression", "conditions": "MDA−MB−231, IC50, 72 h", "method": "as §2"}, "[5]": {"conditions": "representative blot Figure S30G"}, "[6]": {"conditions": "representative blot Figure S30H"}},
  "data": [
    {"smiles": "N.N.[Cl][Pt][Cl]", "note": "[Cisplatin, cisplatin]", "values": [
      {"measurement": "IC50", "setting": "MCF10A", "value": "4.71 ± 1.47", "unit": "µM"},
      {"measurement": "ROS production", "setting": "HT29 cells [1]; HT29, 24 h", "value": 205.39, "unit": "RFU"},
      {"measurement": "ROS production", "setting": "HT29 cells [1]; HT29, 48 h", "value": 285.11, "unit": "RFU"},
      {"measurement": "ROS production", "setting": "HT29 cells [1]; HT29, 72 h", "value": 316.55, "unit": "RFU"},
      {"measurement": "ROS production", "setting": "MDA−MB−231 cells [2]; MDA−MB−231, 24 h", "value": 279.82, "unit": "RFU"},
      {"measurement": "ROS production", "setting": "MDA−MB−231 cells [2]; MDA−MB−231, 48 h", "value": 325.96, "unit": "RFU"},
      {"measurement": "ROS production", "setting": "MDA−MB−231 cells [2]; MDA−MB−231, 72 h", "value": 369.97, "unit": "RFU"},
      {"measurement": "β-actin/GAPDH normalized to control (1)", "setting": "HT29 cells [3]; representative blot Figure S28A", "value": 0.6345},
      {"measurement": "β-tubulin/GAPDH normalized to control (1)", "setting": "HT29 cells [3]; representative blot Figure S28B", "value": 0.8003},
      {"measurement": "α-tubulin/GAPDH normalized to control (1)", "setting": "HT29 cells [3]; representative blot Figure S28C", "value": 0.8201},
      {"measurement": "p-AKT/AKT/GAPDH normalized to control (1)", "setting": "HT29 cells [3]; representative blot Figure S29A", "value": 0.288},
      {"measurement": "p-ERK/ERK/GAPDH normalized to control (1)", "setting": "HT29 cells [3]; representative blot Figure S29B", "value": 1.125},
      {"measurement": "p53/GAPDH normalized to control (1)", "setting": "HT29 cells [3]; representative blot Figure S29C", "value": 0.9507},
      {"measurement": "p21/GAPDH normalized to control (1)", "setting": "HT29 cells [3]; representative blot Figure S29D", "value": 2.964},
      {"measurement": "Bax/GAPDH normalized to control (1)", "setting": "HT29 cells [3]; representative blot Figure S30A", "value": 1.81},
      {"measurement": "Bcl2/GAPDH normalized to control (1)", "setting": "HT29 cells [3]; representative blot Figure S30B", "value": 0.5659},
      {"measurement": "Cyt C/GAPDH normalized to control (1)", "setting": "HT29 cells [3]; representative blot Figure S30C", "value": 2.419},
      {"measurement": "Procaspase 8/GAPDH normalized to control (1)", "setting": "HT29 cells [3]; representative blot Figure S30D", "value": 0.004029},
      {"measurement": "Cleaved BID/GAPDH normalized to control (1)", "setting": "HT29 cells [3]; representative blot Figure S30E", "value": 2.527},
      {"measurement": "Procaspase 9/GAPDH normalized to control (1)", "setting": "HT29 cells [3]; representative blot Figure S30F", "value": 0.6388},
      {"measurement": "Cleaved caspase 3/GAPDH normalized to control (1)", "setting": "HT29 cells [3]; [5]", "value": 11.81},
      {"measurement": "Procaspase 3/GAPDH normalized to control (1)", "setting": "HT29 cells [3]; [5]", "value": 1.2},
      {"measurement": "Cleaved PARP-1/GAPDH normalized to control (1)", "setting": "HT29 cells [3]; [6]", "value": 3.484},
      {"measurement": "PARP-1/GAPDH normalized to control (1)", "setting": "HT29 cells [3]; [6]", "value": 0.8236},
      {"measurement": "Beclin1/GAPDH normalized to control (1)", "setting": "HT29 cells [3]; representative blot Figure S31A", "value": 3.89},
      {"measurement": "ATG5/GAPDH normalized to control (1)", "setting": "HT29 cells [3]; representative blot Figure S31B", "value": 1.193},
      {"measurement": "ATG16L1/GAPDH normalized to control (1)", "setting": "HT29 cells [3]; representative blot Figure S31C", "value": 1.173},
      {"measurement": "ATG9A/GAPDH normalized to control (1)", "setting": "HT29 cells [3]; representative blot Figure S31D", "value": 2.212},
      {"measurement": "ATG4B/GAPDH normalized to control (1)", "setting": "HT29 cells [3]; representative blot Figure S31E", "value": 1.101},
      {"measurement": "LC3B/GAPDH normalized to control (1)", "setting": "HT29 cells [3]; representative blot Figure S31F", "value": 3.233},
      {"measurement": "LC3B protein expression level increase", "setting": "MDA−MB−231 cells [4]; Figure 12D", "value": "up to 3 folds"},
      {"measurement": "β-actin/GAPDH normalized to control (1)", "setting": "MDA−MB−231 cells [4]; representative blot Figure S24A", "value": 0.5805},
      {"measurement": "β-tubulin/GAPDH normalized to control (1)", "setting": "MDA−MB−231 cells [4]; representative blot Figure S24B", "value": 1.195},
      {"measurement": "α-tubulin/GAPDH normalized to control (1)", "setting": "MDA−MB−231 cells [4]; representative blot Figure S24C", "value": 0.9486},
      {"measurement": "p-AKT/AKT/GAPDH normalized to control (1)", "setting": "MDA−MB−231 cells [4]; representative blot Figure S25A", "value": 0.6181},
      {"measurement": "p-ERK/ERK/GAPDH normalized to control (1)", "setting": "MDA−MB−231 cells [4]; representative blot Figure S25B", "value": 0.2123},
      {"measurement": "p53/GAPDH normalized to control (1)", "setting": "MDA−MB−231 cells [4]; representative blot Figure S25C", "value": 1.585},
      {"measurement": "p21/GAPDH normalized to control (1)", "setting": "MDA−MB−231 cells [4]; representative blot Figure S25D", "value": 1.351},
      {"measurement": "Bax/GAPDH normalized to control (1)", "setting": "MDA−MB−231 cells [4]; representative blot Figure S26A", "value": 1.836},
      {"measurement": "Bcl2/GAPDH normalized to control (1)", "setting": "MDA−MB−231 cells [4]; representative blot Figure S26B", "value": 0.7529},
      {"measurement": "Cytochrome C/GAPDH normalized to control (1)", "setting": "MDA−MB−231 cells [4]; representative blot Figure S26C", "value": 2.371},
      {"measurement": "Procaspase 8/GAPDH normalized to control (1)", "setting": "MDA−MB−231 cells [4]; representative blot Figure S26D", "value": 0.5682},
      {"measurement": "Cleaved BID/GAPDH normalized to control (1)", "setting": "MDA−MB−231 cells [4]; representative blot Figure S26E", "value": 11.07},
      {"measurement": "Procaspase 9/GAPDH normalized to control (1)", "setting": "MDA−MB−231 cells [4]; representative blot Figure S26F", "value": 1.122},
      {"measurement": "Procaspase 3/GAPDH normalized to control (1)", "setting": "MDA−MB−231 cells [4]; representative blot Figure S26G", "value": 0.8253},
      {"measurement": "PARP-1/GAPDH normalized to control (1)", "setting": "MDA−MB−231 cells [4]; representative blot Figure S26H", "value": 0.7867},
      {"measurement": "Beclin1/GAPDH normalized to control (1)", "setting": "MDA−MB−231 cells [4]; representative blot Figure S27A", "value": 0.9211},
      {"measurement": "ATG5/GAPDH normalized to control (1)", "setting": "MDA−MB−231 cells [4]; representative blot Figure S27B", "value": 0.8216},
      {"measurement": "ATG16L1/GAPDH normalized to control (1)", "setting": "MDA−MB−231 cells [4]; representative blot Figure S27C", "value": 0.9512},
      {"measurement": "ATG9A/GAPDH normalized to control (1)", "setting": "MDA−MB−231 cells [4]; representative blot Figure S27D", "value": 0.6551},
      {"measurement": "ATG4B/GAPDH normalized to control (1)", "setting": "MDA−MB−231 cells [4]; representative blot Figure S27E", "value": 1.551},
      {"measurement": "LC3B/GAPDH normalized to control (1)", "setting": "MDA−MB−231 cells [4]; representative blot Figure S27F", "value": 1.368}
    ]}
  ]
}
